Reference: patent US7273884B2, “Method of treating tremors” (Eisai, Inc., priority 2002, dated 2007)
Like-named read-outs stand apart in the source and are kept apart here.

How the values were obtained:
NMDA receptor = conditions: noncompetitive NMDA channel blocker; cited from earlier work
[1] = delivered intraperitoneally; severity dose dependent; cited from earlier work
[2] = Harmaline-induced tremor in rats (tremor monitoring cage, 8-12 Hz vs 0-15 Hz motion); format: in vivo, Sprague-Dawley rats
Method: Six female Sprague-Dawley rats were treated with i.p. saline and placed in a tremor monitoring cage for 30 minutes of baseline recording. They then received 10 mg/kg harmaline i.p. to induce tremor. Recording of the harmaline-induced tremor began 15 minutes after the harmaline injection and continued for up to 2½ hours.
A transducer connected to the cage floor recorded motion, which was processed by Fourier transform and spectral analysis. Motion at 8-12 Hz (the range in which the tremor occurs) was compared to the full spectrum of motion recorded (0-15 Hz).
To analyze the reduction of tremor caused by treatment agents, a Convuls-1 pressure sensitive transducer system is used. Convuls-1 is designed to objectively quantify convulsive or tremorous activity in small laboratory animals. An unrestrained animal is placed within a chamber that resides upon a sensing platform. […] The static force exerted by the weight of the platform and animal is not recorded. […] Output power is recorded digitally and analyzed for change of frequency and power using the Dataware A/D converted and software.
The data is analyzed in one minute bins. For each bin, the total power of 0-15 Hz and the total power at 8-12 Hz is calculated. The data is then converted into Excel and the ratio of 8-12 Hz/0-15 Hz power is calculated. […]

[3] = general clinical practice, first line therapy; cited from earlier work
[4] = patients; cited from earlier work
[5] = kindled rat; cited from earlier work
[6] = tested on: dopaminergic and serotonergic neurotransmission; conditions: in vivo microdialysis; cited from earlier work
[7] = rats, cortical tungstic acid gel; cited from earlier work
[8] = tested on: cultured mouse spinal cord neurons; conditions: 10-30 μg/mL; cited from earlier work
[9] = rats; cited from earlier work
[10] = cats, electrical stimulation of the visual cortex; cited from earlier work
[11] = tested on: GABA/benzodiazepine receptor ionophore complex; conditions: in vitro; does not produce changes in chloride flux; cited from earlier work
[12] = Zonisamide treatment of tremor patients at an outpatient neurology clinic; format: in vivo, human
Method: Zonisamide was used in treatment of patients at an outpatient neurology clinic, which provided the following results. […] For intractable essential tremor, 10 patients (age range: 46 to 82) were identified who were either intolerant to, or failed on, primidone or propranolol therapy. The dosage of zonisamide to these patients was 100 mg to a maximum of 200 mg once daily. The study dose was continued for at least 12 weeks unless discontinued earlier due to side effects.

[13] = 50-200 mg/day in addition to anti-Parkinson Disease drug; cited from earlier work
rat hippocampal slices = conditions: 10-30 μg/mL; cited from earlier work
[14] = cats, cortical freezing; cited from earlier work
[15] = tested on: voltage-gated sodium channels; conditions: in vitro; cited from earlier work
T-type Ca2+ currents = conditions: in vitro; cited from earlier work
[16] = one patient; treatment with zonisamide, clonazepam and valpolate; cited from earlier work
[17] = patients at outpatient neurology clinic

## C[C@]12N[C@H](Cc3ccccc31)c1ccccc12 [MK-801]
NMDA receptor
  tremorogenic actions of harmaline: could block the tremorogenic actions of harmaline

## COc1ccc2c3c([nH]c2c1)C(C)=NCC3 [harmaline]
[1]
  effective dose range for tremor induction: 10 to 50 mg/kg
[2]; 10 mg/kg harmaline i.p., female Sprague-Dawley rats
  stability of tremor-inducing effect: stable for over two hours
[2]; harmaline-treated rats (control rats 15-30%)
  ratio of 8-12 Hz/0-15 Hz power: 60-80%

## CC(C)NCC(O)COc1cccc2ccccc12 (stereo not drawn) [propranolol]
[3]
  efficacy in ET: proven efficacy in ET

## NS(=O)(=O)Cc1noc2ccccc12 [zonisamide, 1,2-benzisoxazole-3-methanesulfonamide]
[4]
  tremor developed after administration: two patients developed resting and postural hand tremor
[5]
  threshold for generalized seizures: increase in threshold for generalized seizures
[6]
  dopaminergic and serotonergic neurotransmission: facilitates both dopaminergic and serotonergic neurotransmission
[7]
  interictal spikes and secondarily generalized seizures: suppressed both interictal spikes and the secondarily generalized seizures
[8]
  postsynaptic GABA or glutamate responses: without affecting
  synaptically-driven electrical activity: suppresses synaptically-driven electrical activity
[9]
  oral dose effective in anticonvulsant models: 20 mg/kg
[10]
  duration of cortical focal seizures: reduction in the duration of cortical focal seizures
[11]
  binding to GABA/benzodiazepine receptor ionophore complex: binds to the GABA/benzodiazepine receptor ionophore complex in an allosteric fashion
[12]; Parkinsonian tremor
  patients responding: two out of four responded
[12]; intractable essential tremor responders, 100 mg to 200 mg once daily
  quality of life: reported a better quality of life
[12]; intractable essential tremor, 10 patients intolerant to or failed on primidone or propranolol, 100 mg to 200 mg once daily, at least 12 weeks
  patients responding by reduction in tremor: four patients responded by reduction in tremor of greater than 50%
[12]; mixed tremor (non-essential, secondary to trauma or multiple sclerosis)
  patients responding: two out of two patients responded
[12]; multi-infarct-related (2 or more minor strokes) tremor
  patients responding: one out of two patients responded
[12]; [17]
  adverse reactions experienced in treatment: GI upset, somnolence and skin rash
  kidney stones and anhydrosis (lack of sweating): not encountered
[13]
  symptoms of patients: showed lessening of symptoms
Rat hippocampal slices
  neuronal or glial uptake of [3H]-GABA: without affecting
[14]
  interictal spikes and secondarily generalized seizures: suppressed both interictal spikes and the secondarily generalized seizures
[15]
  effect on voltage-gated sodium channels: blocks voltage-gated sodium channels
T-type Ca2+ currents
  effect on voltage-dependent, transient inward calcium currents: reduces voltage-dependent, transient inward calcium currents
[16]
  symptoms of cortical myoclonic tremor: improved
